From patent US8026258B2, “Aryloxyalkylcarbamate-type derivatives, preparation method thereof and use of same in therapeutics” (Sanofi-Aventis, priority 2004, dated 2011) come the findings set out here.

Usually melting point stands for the temperature, or range, at which the solid turns liquid.

The target in one series is T1, FAAH (Fatty Acid Amide Hydrolase) (Mus musculus, UniProt O08914).
T1 construct: Membrane homogenates are prepared at the time of use by homogenizing the tissues in a Polytron; from tissue; host or cells: mouse brain (minus the cerebellum), membrane homogenate
T1 sequence (O08914 1-579): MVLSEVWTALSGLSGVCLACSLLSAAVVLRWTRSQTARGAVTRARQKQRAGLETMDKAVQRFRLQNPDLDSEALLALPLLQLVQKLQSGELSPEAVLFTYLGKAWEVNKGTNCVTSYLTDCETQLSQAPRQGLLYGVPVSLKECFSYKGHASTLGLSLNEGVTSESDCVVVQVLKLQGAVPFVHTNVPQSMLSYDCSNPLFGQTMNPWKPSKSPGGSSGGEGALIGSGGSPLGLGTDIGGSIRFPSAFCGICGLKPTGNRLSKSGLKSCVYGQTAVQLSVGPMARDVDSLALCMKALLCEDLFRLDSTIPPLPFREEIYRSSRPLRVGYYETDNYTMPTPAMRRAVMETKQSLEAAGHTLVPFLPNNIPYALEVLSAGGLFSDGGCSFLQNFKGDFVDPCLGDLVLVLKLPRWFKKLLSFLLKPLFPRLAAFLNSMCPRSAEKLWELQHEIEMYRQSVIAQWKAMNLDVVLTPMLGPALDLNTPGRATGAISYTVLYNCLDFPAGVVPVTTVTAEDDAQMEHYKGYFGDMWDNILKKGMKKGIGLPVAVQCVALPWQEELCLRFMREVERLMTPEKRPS
Description: Radioenzymatic FAAH inhibition assay (hydrolysis of anandamide [ethanolamine 1-3H]) in mouse brain membrane homogenates. The format is biochemical. To be noted: mouse brain membrane homogenate; anandamide 10 μM; 15 minutes at 25° C.; read-out: IC50 (concentration inhibiting by 50% the control enzyme activity of FAAH). Here is the method: The compounds of the invention were subjected to pharmacological tests permitting determination of their inhibitory effect on the enzyme FAAH (Fatty Acid Amide Hydrolase).
Accordingly, mouse brains (minus the cerebellum) are removed and stored at −80° C. Membrane homogenates are prepared at the time of use by homogenizing the tissues in a Polytron in a 10 mM Tris-HCl buffer (pH 8.0) containing 150 mM NaCl and 1 mM EDTA. The enzyme reaction is subsequently conducted in 70 μl of buffer containing bovine serum albumin without fatty acids (1 mg/ml). In succession, the test compounds, at various concentrations, anandamide [ethanolamine 1-^3H] (specific activity: 15-20 Ci/mmol) diluted to 10 μM with cold anandamide, and the membrane preparation (400 μg of frozen tissue per assay) are added. After 15 minutes at 25° C. the enzyme reaction is terminated by adding 140 μl of chloroform/methanol (2:1). The mixture is stirred for 10 minutes and then centrifuged for 15 minutes at 3500 g. An aliquot (30 μl) of the aqueous phase containing the ethanolamine [1-^3H] is counted by liquid scintillation.
`NC(=O)COC(=O)NCCCCOc1cccc2ccccc12` [Compound 58, 2-amino-2-oxoethyl [4-(1-naphthalenyloxy]butyl]-carbamate]: the IC50 worked out at 0.47 µM.

The subject of a further series is male OF1 mice. Description: Analgesia test: PBQ (phenylbenzoquinone)-induced abdominal stretches. The format is in vivo, mouse. To be noted: oral, dose of 1 mg/kg, at 2 hours, PBQ 2 mg/kg i.p. Here is the method:
The in vivo activity of the compounds of the invention was evaluated in an analgesia test.
Accordingly, intraperitoneal (i.p.) administration of PBQ (phenylbenzoquinone, 2 mg/kg in a 0.9% sodium chloride solution containing 5% of ethanol) to male OF1 mice weighing 25 to 30 g causes abdominal stretches, on average 30 twists or contractions during the period from 5 to 15 minutes after injection. The test compounds are administered orally in suspension in Tween 80 at 0.5%, 60 minutes or 120 minutes before the administration of PBQ. […] For example, compound 58 of the table reduces by 51% the number of stretches induced by PBQ, at a dose of 1 mg/kg at 2 hours.
Turning to `NC(=O)COC(=O)NCCCCOc1cccc2ccccc12` [Compound 58, 2-amino-2-oxoethyl [4-(1-naphthalenyloxy]butyl]-carbamate], the “reduction of the number of stretches induced by PBQ” value is reported as 51%.

Tested on in another series: not given
Test: not given
Settings: not given
In turn, `CNC(=O)COC(=O)NCCOc1ccc(Cl)cc1` [Compound 1, 2-(methylamino)-2-oxoethyl{2-[(4-chlorophenyl)-oxy]ethyl}carbamate] returned a melting point of 147 to 149 °C.

Turning to `N#Cc1ccc(OCCNC(=O)OCC(N)=O)cc1` [Compound 11, 2-amino-2-oxoethyl (2-[(4-cyanophenyl)oxy]ethyl)-carbamate], the melting point is 204 to 206 °C.

For `NC(=O)COC(=O)NCCCCOc1cccc2ccccc12` [Compound 58, 2-amino-2-oxoethyl [4-(1-naphthalenyloxy]butyl]-carbamate], the melting point is 80 to 82 °C.

As for `NC(=O)COC(=O)N1CCC(COc2cccc3ccccc23)C1` (centres unmarked) [Compound 83, 2-amino-2-oxoethyl 3-[(1-naphthalenyloxy)methyl]-1-pyrrolidinecarboxylate], the melting point was 161 to 163 °C.

In turn, `CNC(=O)COC(=O)N1CCC(Oc2ccc(-c3ccc(F)cc3)cc2)CC1` [Compound 85, 2-(methylamino)-2-oxoethyl 4-[(4′-fluoro-4-biphenyl)-oxy]-1-piperidinecarboxylate] gave a melting point of 117 to 119 °C.

For `CNC(=O)COC(=O)N1CCC(COc2ccc(Br)cc2)CC1` [Compound 120, 2-(methylamino)-2-oxoethyl 4-{[(4-bromophenyl)oxy]-methyl}-1-piperidinecarboxylate], the melting point fell in the range of 163 to 165 °C.

The molecule `NC(=O)COC(=O)N1CCC(COc2cccc3ccccc23)CC1` [Compound 137, 2-amino-2-oxoethyl 4-[(1-naphthalenyloxy)methyl]-1-piperidinecarboxylate] came in with a melting point of 135 to 136 °C.

Turning to `NC(=O)COC(=O)N1CCC(COc2ccc3cccnc3c2)CC1` [Compound 148, 2-amino-2-oxoethyl 4-[(7-quinolinyloxy)methyl]-1-piperidinecarboxylate], the melting point was 137 to 139 °C.

Molecule `CNC(=O)COC(=O)N1CCC(COc2ccc(-c3ccc(C(F)(F)F)cc3)cc2)CC1` [Compound 154, 2-(methylamino)-2-oxoethyl 4-{[(4′-(trifluoromethyl)-4-biphenyl)oxy]methyl}-1-piperidinecarboxylate] yielded a melting point of 197 to 199 °C.

In turn, `CNC(=O)COC(=O)N1CCC(CCOc2ccc(Br)cc2)CC1` [Compound 168, 2-(methylamino)-2-oxoethyl 4-{2-[(4-bromophenyl)-oxy]ethyl}-1-piperidinecarboxylate] had a melting point of 101 to 103 °C.

Consider `NC(=O)COC(=O)N1CCC(CCOc2ccc3ccncc3c2)CC1` [Compound 183, 2-amino-2-oxoethyl 4-[2-(7-isoquinolinyloxy)ethyl]-1-piperidinecarbamate], for which the melting point lay in the range of 179 to 181 °C.

For `CNC(=O)COC(=O)N1CCC(CCOc2ccc(-c3ccc(Cl)cc3)cc2)CC1` [Compound 186, 2-(methylamino)-2-oxoethyl 4-{2-[(4′-chloro-4-biphenyl)oxy]ethyl}-1-piperidinecarboxylate], the melting point fell in the range of 104 to 106 °C.
